Numbers after ± are expanded uncertainties.
Test: Molar enthalpy of transition or fusion
Details: Crystal; DSC

With `Nc1cc(Cl)ccc1C(=O)O` [2-amino-4-chlorobenzoic acid] the “Molar enthalpy of transition or fusion” value was 28.8 ± 0.99 kJ/mol.
